Reference: PMC6273488, “Synthesis and Biological Evaluation of Benzochromenopyrimidinones as Cholinesterase Inhibitors and Potent Antioxidant, Non-Hepatotoxic Agents for Alzheimer’s Disease” (Molecules, 2016)
Where two headings read alike, the source gives them in different places.

How the values were obtained:
[1] = target: T1, Electrophorus electricus AChE (EeAChE) (Electrophorus electricus, UniProt O42275); conditions: cited from earlier work
T1 construct: purified AChE from Electrophorus electricus (Type V-S, Sigma-Aldrich); purchased Sigma-Aldrich Type V-S
T1 sequence (O42275 24-633): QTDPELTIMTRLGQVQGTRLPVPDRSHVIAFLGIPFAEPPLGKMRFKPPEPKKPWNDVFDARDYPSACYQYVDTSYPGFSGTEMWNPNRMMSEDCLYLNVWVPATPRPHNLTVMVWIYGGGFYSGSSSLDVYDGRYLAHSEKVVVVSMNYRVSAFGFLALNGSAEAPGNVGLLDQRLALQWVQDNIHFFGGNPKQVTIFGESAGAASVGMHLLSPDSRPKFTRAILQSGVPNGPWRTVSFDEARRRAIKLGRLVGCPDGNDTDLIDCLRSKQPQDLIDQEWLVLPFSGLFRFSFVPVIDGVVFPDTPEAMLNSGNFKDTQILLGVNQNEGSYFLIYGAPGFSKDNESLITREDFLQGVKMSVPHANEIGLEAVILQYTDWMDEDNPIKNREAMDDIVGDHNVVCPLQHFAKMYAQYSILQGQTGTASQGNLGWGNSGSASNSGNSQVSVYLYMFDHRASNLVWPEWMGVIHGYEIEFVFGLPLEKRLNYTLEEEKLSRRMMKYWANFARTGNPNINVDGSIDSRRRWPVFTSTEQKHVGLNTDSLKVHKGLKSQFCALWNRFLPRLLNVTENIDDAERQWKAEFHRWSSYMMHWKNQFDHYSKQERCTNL

[2] = target: T2, horse serum BuChE (eqBuChE) (Equus caballus, UniProt P81908); conditions: cited from earlier work
T2 construct: BuChE from horse serum (lyophilized powder, Sigma-Aldrich); purchased Sigma-Aldrich; host or cells: horse serum
T2 sequence (P81908 whole entry): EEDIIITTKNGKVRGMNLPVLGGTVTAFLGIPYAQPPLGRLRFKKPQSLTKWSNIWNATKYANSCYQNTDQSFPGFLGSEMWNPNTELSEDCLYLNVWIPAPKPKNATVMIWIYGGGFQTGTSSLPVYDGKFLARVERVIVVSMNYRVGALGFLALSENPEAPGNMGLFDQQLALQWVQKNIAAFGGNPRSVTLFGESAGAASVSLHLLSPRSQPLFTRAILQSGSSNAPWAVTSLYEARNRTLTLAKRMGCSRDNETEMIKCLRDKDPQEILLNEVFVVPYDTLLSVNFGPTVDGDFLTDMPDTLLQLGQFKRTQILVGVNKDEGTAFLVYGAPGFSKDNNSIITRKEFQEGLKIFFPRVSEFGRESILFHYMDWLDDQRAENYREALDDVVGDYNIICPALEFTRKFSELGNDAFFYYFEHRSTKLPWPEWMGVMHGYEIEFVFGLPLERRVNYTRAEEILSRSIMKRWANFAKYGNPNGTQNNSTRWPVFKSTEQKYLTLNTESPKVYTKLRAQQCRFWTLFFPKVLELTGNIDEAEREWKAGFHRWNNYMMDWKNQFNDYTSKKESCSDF

HepG2 cells = assay: in vitro; assay type: cell-based; conditions: HepG2, MTT, concentrations up to 1000 μM
Procedure: (§1) A prerequisite for any effective lead drug is to keep its cytotoxicity at the lowest possible level. In this regard, we submitted the four most promising compounds (3Ab, 3Bb, 3Cb and 3Ba) to an in vitro toxicologic evaluation (MTT assay) using human hepatocellular carcinoma cell line (HepG2) which represents a good probe to evaluate hepatotoxic effects. […].
(§2) HepG2 cells were purchased from American Type Culture Collection. The cells were cultured in Eagle’s Minimum Essential Medium (Ozyme, France) supplemented with 10% fetal bovine serum, 1X non-essential amino acids, 100 units/mL penicillin and […] streptomycin (Dutscher, Brumath, France). Cultures were kept under a CO2/air (5%/95%) humidified atmosphere at 37 °C. Prior to the experiment, cells were seeded in 96-well culture plates at a density of 0.1 × 10^6 cells per well. After 24 h of incubation, the culture medium was refreshed and 100 µL of the test compounds or DMSO (0.1%) were added. […] For the MTT assay, after 24 h of treatment, cells were incubated with 50 µL MTT (0.5 mg/mL, Sigma Aldrich, city, France) at 37 °C for 2 h. Plates were centrifuged, MTT was removed and 100 µL DMSO was distributed per well. The absorbance at 570 nm was measured using microplate reader (brand). Cell viability was expressed as percentage of cell viability compared to controls (DMSO, 0.1%).

in vitro [3] = assay type: cell-based; conditions: 24 h, MTT, read-out: In vitro toxicity (% cell viability)
Procedure: as §1, §2

in vitro [4] = conditions: PAMPA, pH 7.4
Procedure: Penetration across the BBB is an essential property for compounds targeting the CNS. […] The filter membrane of the donor plate was coated with PBL (Polar Brain Lipid, Avanti, AL, USA) in dodecane (4 µL of 20 mg/mL PBL in dodecane) and the acceptor well was filled with 300 µL of PBS pH 7.4 buffer ([…]). Tested compounds were dissolved first in DMSO and that diluted with PBS pH 7.4 to reach the final concentration 100 µM in the donor well. […] 300 µL of the donor solution was added to the donor wells ([…]) and the donor filter plate was carefully put on the acceptor plate so that coated membrane was “in touch” with both donor solution and acceptor buffer. Test compound diffused from the donor well through the lipid membrane (Area = 0.28 cm^2) to the acceptor well. The concentration of the drug in both donor and the acceptor wells was assessed after 3, 4, 5 and 6 h of incubation in quadruplicate using the UV plate reader Synergy HT (Biotek, Winooski, VT, USA) at the maximum absorption wavelength of each compound.

[5] = ORAC-FL; cited from earlier work
[6] = related alkaloid and synthetic compounds

For `C[n+]1c2n(c(=O)c3ccccc31)CCc1c-2[nH]c2ccccc12` [II, dehydroevodiamine chloride], which IC50 [1] is on record?
The IC50 was 6.3 µM.

And the IC50 [2]?
The IC50 was 8.4 µM.

Which results are given for `O=c1c2ccccc2nc2n1CCCC2` [Ib]?
IC50 [1, 6]: 38.6 µM; IC50 ([2]; unit inferred): > 500 µM

What does the source list for `O=c1c2ccccc2nc2n1CCCCC2` [Ic]?
IC50 [1, 6]: 279 µM; IC50 ([2]; unit inferred): > 500 µM

With `Nc1c2c(nc3ccccc13)CCCC2` [Tacrine, tacrine, reference compound] as the compound, how does the “hepatotoxicity on HepG2 cells (in words)” value (HepG2 cells) read?
The value was “safe up to 100 µM but significantly decreased cell viability above 300 μM”.

And the viability at 24 h, 1 µM (in vitro [3]; HepG2, 1 µM)?
The viability at 24 h, 1 µM was 105 ± 4.6%.

And the viability at 24 h, 3 µM (in vitro [3]; HepG2, 3 µM)?
The viability at 24 h, 3 µM was 104 ± 8.7%.

What about the viability at 24 h, 10 µM (in vitro [3]; HepG2, 10 µM) of the same compound?
The viability at 24 h, 10 µM was 97 ± 6.5%.

What about the viability at 24 h, 30 µM (in vitro [3]; HepG2, 30 µM) of the same compound?
Its viability at 24 h, 30 µM is 93 ± 2.7%.

And the viability at 24 h, 100 µM (in vitro [3]; HepG2, 100 µM)?
The viability at 24 h, 100 µM was 95.2 ± 6%.

And the viability at 24 h, 300 µM (in vitro [3]; HepG2, 300 µM)?
The viability at 24 h, 300 µM was 47.6 ± 5.6%.

What about the viability at 24 h, 1 mM (in vitro [3]; HepG2, 1 mM) of the same compound?
Its viability at 24 h, 1 mM is 13.9 ± 0.8%.

And the Papp (in vitro [4])?
The Papp was 5.3 ± 0.19 ×10⁻⁶ cm/s.

What about the ORAC [5] of the same compound?
The ORAC was 0.2 ± 0.1 [22] Trolox equivalents.
